Source: ChEMBL document CHEMBL1201862, “PubChem BioAssay data set” (2004)
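1) Cells in 96-well plates. 2) Compound, 48 h, 5 concentrations. 3) Linear interpolation between surrounding doses. 4) Unreached endpoint = highest concentration. GI50: concentration for 50% inhibition of growth.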 Active and inactive are the calls of the source. No stated cut-off is given here; in the data, active = GI50 up to about 1.1 µM and inactive = higher.

How the values were obtained:
Assay in all cases: NCI anticancer screen, dose series, 48 h
786-0 = tested on: 786-0
A498 = tested on: A498
DMS-273 = tested on: DMS-273
HL-60 = tested on: HL-60
HOP-92 = tested on: HOP-92
IGROV-1 = tested on: IGROV-1
Malme-3M = tested on: Malme-3M
NCI-H226 = tested on: NCI-H226
NCI-H23 = tested on: NCI-H23
NCI-H522 = tested on: NCI-H522
OVCAR-5 = tested on: OVCAR-5
SF-295 = tested on: SF-295
SK-MEL-28 = tested on: SK-MEL-28
SK-MEL-5 = tested on: SK-MEL-5
SW-620 = tested on: SW-620
TK-10 = tested on: TK-10
UO-31 = tested on: UO-31
SN12C = tested on: SN12C
MCF7 = tested on: MCF7
MDA-N = tested on: MDA-N

Measured: GI50

CC(C)[Si](OCC1CC(C[C@H]2CC(C[C@H]3C[C@@H](CO[Si](C(C)C)(C(C)C)C(C)C)OC(C)(C)O3)OC(C)(C)O2)OC(C)(C)O1)(C(C)C)C(C)C (some centres undefined)
inactive: 786-0 > 100 µM | A498 > 100 µM | DMS-273 > 100 µM | HL-60 > 100 µM | HOP-92 > 100 µM | IGROV-1 > 100 µM | Malme-3M > 100 µM | NCI-H226 > 100 µM | NCI-H23 > 100 µM | NCI-H522 > 100 µM | OVCAR-5 > 100 µM | SF-295 > 100 µM | SK-MEL-28 > 100 µM | SK-MEL-5 > 100 µM | SW-620 > 100 µM | TK-10 > 100 µM | UO-31 > 100 µM

Cc1ccc(NC(=O)c2cccc([N+](=O)[O-])c2O)c([N+](=O)[O-])c1
inactive: 786-0 12.7 µM | A498 16 µM | DMS-273 11.7 µM | HL-60 25.9 µM | HOP-92 21.5 µM | IGROV-1 20.9 µM | Malme-3M 14.9 µM | NCI-H226 3.29 µM | NCI-H23 13.6 µM | NCI-H522 14.1 µM | OVCAR-5 20.2 µM | SF-295 15.1 µM | SK-MEL-28 16.7 µM | SN12C 16.5 µM | SW-620 16.8 µM | UO-31 24.1 µM

CC(C(=O)[O-])S(=O)(=O)O.CCc1c2cc(OC)c(OC)cc2cc2c3cc(OC)c(OC)cc3cc[n+]12
inactive: 786-0 36.9 µM | A498 53.1 µM | DMS-273 45.2 µM | HL-60 20.8 µM | HOP-92 29 µM | IGROV-1 41.5 µM | MCF7 9.89 µM | MDA-N 9.89 µM | Malme-3M 8.79 µM | NCI-H226 9.73 µM | NCI-H23 15.9 µM | NCI-H522 3.09 µM | OVCAR-5 58.7 µM | SF-295 67.3 µM | SK-MEL-28 21.7 µM | SK-MEL-5 15.3 µM | SN12C 6.62 µM | SW-620 26.5 µM | TK-10 69.7 µM | UO-31 53.7 µM

C/C(CC(=O)Nc1ccc(Cl)c(Cl)c1)=N/NC(=O)C[n+]1ccccc1
inactive: 786-0 43.1 µM | A498 > 100 µM | DMS-273 40.9 µM | HL-60 44.4 µM | HOP-92 > 100 µM | IGROV-1 > 100 µM | Malme-3M > 100 µM | NCI-H226 > 100 µM | NCI-H23 > 100 µM | NCI-H522 68.2 µM | OVCAR-5 > 100 µM | SF-295 > 100 µM | SK-MEL-28 > 100 µM | SK-MEL-5 > 100 µM | SN12C > 100 µM | TK-10 > 100 µM | UO-31 > 100 µM

Cc1cc(Cl)ccc1N1C(=O)C(=O)C(c2nc3ccccc3o2)C(=O)C1=O
inactive: 786-0 > 100 µM | A498 > 100 µM | DMS-273 > 100 µM | HL-60 33.2 µM | HOP-92 58.7 µM | IGROV-1 35.6 µM | Malme-3M > 100 µM | NCI-H226 > 100 µM | NCI-H23 > 100 µM | NCI-H522 > 100 µM | SF-295 > 100 µM | SK-MEL-28 96.4 µM | SK-MEL-5 > 100 µM | SN12C > 100 µM | SW-620 43.7 µM | TK-10 > 100 µM | UO-31 > 100 µM

O=C(O)c1ccc([N+](=O)[O-])c2c(=O)c3ccccc3[nH]c12
inactive: 786-0 > 100 µM | A498 > 100 µM | DMS-273 > 100 µM | HL-60 > 100 µM | HOP-92 > 100 µM | IGROV-1 > 100 µM | Malme-3M > 100 µM | NCI-H522 > 100 µM | OVCAR-5 > 100 µM | SF-295 > 100 µM | SK-MEL-5 > 100 µM | SN12C > 100 µM | SW-620 > 100 µM | UO-31 > 100 µM

COc1ccc(/C=[N+](\[O-])[C@H](COCc2ccccc2)c2ccccc2)cc1
inactive: 786-0 > 100 µM | A498 > 100 µM | DMS-273 > 100 µM | HL-60 25 µM | HOP-92 23.9 µM | IGROV-1 > 100 µM | Malme-3M 42.1 µM | NCI-H23 > 100 µM | NCI-H522 41.1 µM | OVCAR-5 > 100 µM | SF-295 66.8 µM | SK-MEL-28 38 µM | SW-620 92 µM | TK-10 > 100 µM | UO-31 17.3 µM

CN(CC(=O)O)S(=O)(=O)c1ccc(F)cc1
inactive: 786-0 > 100 µM | A498 > 100 µM | DMS-273 > 100 µM | HL-60 > 100 µM | HOP-92 > 100 µM | IGROV-1 > 100 µM | Malme-3M > 100 µM | NCI-H23 > 100 µM | NCI-H522 > 100 µM | OVCAR-5 > 100 µM | SF-295 > 100 µM | SK-MEL-28 > 100 µM | SK-MEL-5 > 100 µM | SN12C > 100 µM | SW-620 > 100 µM | TK-10 > 100 µM | UO-31 > 100 µM

Cc1ccc2c(C3Cc4ccccc4N3C(=O)/C=C\C(=O)O)c(C)[nH]c2c1 (centres undefined)
inactive: 786-0 47.9 µM | A498 65.8 µM | DMS-273 41.7 µM | HL-60 19.6 µM | HOP-92 30.8 µM | IGROV-1 41 µM | Malme-3M 33.5 µM | NCI-H226 > 100 µM | NCI-H23 67.9 µM | NCI-H522 24.7 µM | OVCAR-5 > 100 µM | SF-295 28.8 µM | SK-MEL-28 59 µM | SK-MEL-5 41.4 µM | SN12C 49.8 µM | SW-620 33.1 µM | TK-10 56.1 µM | UO-31 44.3 µM

CCN(CC)c1ccc(/N=N/c2ccc([N+](=O)[O-])cc2OC(=O)/C=C/c2ccccc2)c(OC(=O)/C=C/c2ccccc2)c1
inactive: 786-0 7.43 µM | A498 > 26.9 µM | DMS-273 5.5 µM | HL-60 2.11 µM | HOP-92 > 100 µM | IGROV-1 18.5 µM | Malme-3M 6.44 µM | NCI-H226 1.44 µM | NCI-H23 12.2 µM | NCI-H522 23.2 µM | SF-295 4.6 µM | SK-MEL-28 7.03 µM | SK-MEL-5 12.2 µM | SN12C 20.6 µM | SW-620 7.57 µM | TK-10 27.3 µM | UO-31 4.45 µM

COc1ccc(-c2cc(=O)c3ccccc3o2)cc1N
inactive: 786-0 > 100 µM | A498 37.4 µM | DMS-273 41.3 µM | HL-60 15.6 µM | HOP-92 76.2 µM | IGROV-1 55.5 µM | Malme-3M > 100 µM | NCI-H226 > 100 µM | NCI-H23 38.5 µM | NCI-H522 20.5 µM | OVCAR-5 56 µM | SF-295 41.7 µM | SK-MEL-28 57.8 µM | SK-MEL-5 25.8 µM | SN12C 84.7 µM | SW-620 38.4 µM | TK-10 > 100 µM | UO-31 19.9 µM

COC(=O)N/N=C(/Cc1occc(=O)c1O)C(=O)Nc1ccc([N+](=O)[O-])cc1[N+](=O)[O-]
inactive: 786-0 > 100 µM | A498 > 100 µM | DMS-273 > 100 µM | HL-60 > 100 µM | HOP-92 > 100 µM | IGROV-1 > 100 µM | Malme-3M > 100 µM | NCI-H226 > 100 µM | NCI-H23 > 100 µM | NCI-H522 > 100 µM | OVCAR-5 > 100 µM | SF-295 > 100 µM | SK-MEL-28 > 100 µM | SK-MEL-5 > 100 µM | SN12C > 100 µM | SW-620 > 100 µM | TK-10 > 100 µM | UO-31 > 100 µM
